Like-named read-outs stand apart in the source and are kept apart here.

Here are results for 1 molecule from patent publication US12351556B2, “Pyridin-2(1H)one derivatives, their preparation and their use for the treatment of pain” (INSTITUT NATIONAL DE LA SANTE ET DE LA RECHERCHE MEDICALE …, priority 2019, dated 2025).

The test system of test [1] is panel of 50 protein kinases. Kind of test: ICKP screening, whole panel of 50 protein kinases. The format is biochemical, human. The conditions noted are these: 10 μM. The procedure: FIG. 3 illustrates the human kinome. Compound 69 was evaluated at the International Center For Kinase Profiling (ICKP, Dundee, Scotland) toward a panel of 50 protein kinases that provide a representative sampling of the human kinome. The results were expressed as the mean percentage of residual activity at 10 μM concentration (duplicate assays). Small disks: ≥65%, larger disk: 19%. The black square indicates the kinome region containing protein kinases evaluated in a second screening (FIG. 4, Table 4). The tree was generated using the Kinome Render software, and the illustration reproduced courtesy of Cell Signaling Technology, Inc. (www.cellsignal.com) Chartier et al PeerJ 2013, 1:e126.
Results are expressed as the mean percentage of residual activity at 10 μM (Table 3) or 1 μM (Table 4). They are illustrated on FIGS. 3 and 4.
(§1) Studies were undertaken to identify the possible biological target(s) of compound 69. The activation in neurons of PK such as PKCγ, ERK or p38 MAPK can contribute to pain hypersensitivity. Therefore, it was decided to screen compound 69 toward a panel of 50 PKs that provide a representative sampling of the human kinome (FIG. 3, Table 3) (Biochem. J. 2007, 408, 297-315). In this panel, p38α MAPK was identified as the privileged target, with 19% of kinase residual activity at 10 μM compound concentration.

The next test has as its target p38α MAPK (Homo sapiens (Human), UniProt Q16539). Put plainly: p38 alpha IC50. In kind it is biochemical. As to the method: as §1
The selectivity of compound 69 was evaluated at 1 μM toward another panel containing all four p38 MAPK isoforms, ERK1, ERK2 as well as other protein kinases close to p38α MAPK in the kinome phylogenetic tree (FIG. 4, Table 4). […] Its IC50 toward p38α MAPK was determined, showing a value in the micromolar range (IC50=3.0±0.1 μM).

p38α MAPK, sequence (Q16539 whole entry, canonical isoform): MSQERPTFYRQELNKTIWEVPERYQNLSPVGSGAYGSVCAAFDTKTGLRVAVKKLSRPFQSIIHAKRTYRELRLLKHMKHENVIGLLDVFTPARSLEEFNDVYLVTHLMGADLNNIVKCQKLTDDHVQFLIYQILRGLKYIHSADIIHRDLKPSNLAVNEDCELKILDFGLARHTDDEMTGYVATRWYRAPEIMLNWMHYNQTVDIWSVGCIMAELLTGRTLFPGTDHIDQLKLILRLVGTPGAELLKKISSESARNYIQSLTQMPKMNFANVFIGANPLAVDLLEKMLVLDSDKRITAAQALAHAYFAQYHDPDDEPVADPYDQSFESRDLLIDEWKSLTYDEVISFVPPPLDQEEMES

The term IC50 denotes the concentration that gives 50% inhibition. Turning to `O=c1[nH]cc(Nc2ccccc2)cc1-c1ccccc1Br` [Compound 69, 3-(2-Bromophenyl)-5-(phenylamino)pyridin-2(1H)-one], the “mean percentage of residual activity, other kinases of the panel (small disks)” value in test [1] (all kinases except p38α MAPK) was no less than 65%. In addition, in test [1] (panel of 50 kinases), the “selectivity for p38α MAPK over the other protein kinases” value is “highly selective”. Besides, the IC50 was 1460 nM on p38α MAPK (p38 alpha, read-out: Mean IC50) and 1500 ± 700 nM on p38α MAPK (read-out: IC50 toward p38α MAPK).
